Patent publication US12577206B2 (BRISTOL-MYERS SQUIBB COMPANY, priority 2020, dated 2026)

Assays:
human FPR2 = biological target: T1, human FPR2 (Homo sapiens, UniProt P25090); assay: FPR2 cyclic adenosine monophosphate (cAMP) assay; assay type: cell-based; conditions: CHO cells overexpressing human FPR2; forskolin 5 μM; inhibition of cAMP production; HTRF; read-out: hFPR2 cAMP2 EC50
T1 sequence (P25090 1-351): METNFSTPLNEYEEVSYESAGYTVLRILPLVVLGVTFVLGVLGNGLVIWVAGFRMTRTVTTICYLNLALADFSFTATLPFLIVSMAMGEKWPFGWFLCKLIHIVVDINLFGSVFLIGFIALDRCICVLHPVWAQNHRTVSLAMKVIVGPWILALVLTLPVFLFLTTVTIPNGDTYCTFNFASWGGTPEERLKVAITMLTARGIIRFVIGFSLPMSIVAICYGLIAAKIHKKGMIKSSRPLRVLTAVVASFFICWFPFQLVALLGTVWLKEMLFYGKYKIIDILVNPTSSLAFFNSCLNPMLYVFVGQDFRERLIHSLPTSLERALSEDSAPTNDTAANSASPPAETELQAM
Outline: (§1)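 Inhibition of forskolin-stimulated cAMP (final forskolin 5 μM for FPR2, 10 μM for FPR1; IBMX 200 μM) was measured by HTRF in recombinant CHO cells after 30 min at room temperature.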

human FPR1 = biological target: T2, human FPR1 (Homo sapiens, UniProt P21462); assay: FPR1 cyclic adenosine monophosphate (cAMP) assay; assay type: cell-based; conditions: CHO cells overexpressing human FPR1; forskolin 10 μM; inhibition of cAMP production; HTRF; read-out: hFPR1 cAMP2 EC50
T2 sequence (P21462 1-350): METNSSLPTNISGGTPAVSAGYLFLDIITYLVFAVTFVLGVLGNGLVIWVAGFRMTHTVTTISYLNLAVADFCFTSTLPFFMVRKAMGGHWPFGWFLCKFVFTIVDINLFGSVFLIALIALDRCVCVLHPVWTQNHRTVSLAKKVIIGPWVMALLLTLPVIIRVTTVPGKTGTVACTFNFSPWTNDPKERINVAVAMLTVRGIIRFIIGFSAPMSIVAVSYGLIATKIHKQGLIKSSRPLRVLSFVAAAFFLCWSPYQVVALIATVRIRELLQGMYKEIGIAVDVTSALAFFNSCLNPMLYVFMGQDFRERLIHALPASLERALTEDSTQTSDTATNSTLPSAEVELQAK
Outline: as §1

| SMILES | EC50 (human FPR2) [nM] | EC50 (human FPR1) [nM] |
| --- | --- | --- |
| COc1cc(F)c(-c2c(NC(=O)c3ccc(OC(F)F)cc3)c(=O)n(-c3nc(NC[C@@H](C)O)ccc3C(F)(F)F)n2C)c(F)c1 [Example 273] | 3 | > 5000 |
| COc1cc(F)c(-c2c(NC(=O)c3ccc(OC(F)F)cc3)c(=O)n(-c3nc(NC[C@H](O)C(F)(F)F)ccc3C(F)(F)F)n2C)c(F)c1 [Example 274, N-[5-(2,6-difluoro-4-methoxyphenyl)-1-methyl-3-oxo-2-(6-{[(2S)-3,3,3-trifluoro-2-hydroxypropyl]amino}-3-(trifluoromethyl)pyridin-2-yl)-2,3-dihydro-1H-pyrazol-4-yl]-4-(difluoromethoxy)benzamide] | 2 | > 5000 |
| COc1cc(F)c(-c2c(NC(=O)c3ccc(OC(F)F)cc3)c(=O)n(-c3nc(C(C)(C)O)ccc3C(F)(F)F)n2C)c(F)c1 [Example 275, N-[5-(2,6-difluoro-4-methoxyphenyl)-2-[6-(2-hydroxypropan-2-yl)-3-(trifluoromethyl)pyridin-2-yl]-1-methyl-3-oxo-2,3-dihydro-1H-pyrazol-4-yl]-4-(difluoromethoxy)benzamide] | 5 | > 10000 |
| COc1cc(F)c(-c2c(NC(=O)c3ccc(OC(F)F)cc3)c(=O)n(-c3nc(C(C)(C)O)ccc3Cl)n2C)c(F)c1 [Example 276, N-{2-[3-chloro-6-(2-hydroxypropan-2-yl)pyridin-2-yl]-5-(2,6-difluoro-4-methoxyphenyl)-1-methyl-3-oxo-2,3-dihydro-1H-pyrazol-4-yl}-4-(difluoromethoxy)benzamide] | 4 | 2890 |
| Cn1c(-c2ccc(C3CC3)cc2)c(NC(=O)c2ccc(OC(F)F)cc2)c(=O)n1-c1ncccc1C(F)(F)F [Example 277, N-[5-(4-cyclopropylphenyl)-1-methyl-3-oxo-2-[3-(trifluoromethyl)pyridin-2-yl]-2,3-dihydro-1H-pyrazol-4-yl]-4-(difluoromethoxy)benzamide] | 17 | 730 |
| COCCOc1ccc(C(F)(F)F)c(-n2c(=O)c(NC(=O)c3ccc(OC(F)F)cc3)c(-c3c(F)cc(OC)cc3F)n2C)n1 [Example 278, N-[5-(2,6-difluoro-4-methoxyphenyl)-2-[6-(2-methoxyethoxy)-3-(trifluoromethyl)pyridin-2-yl]-1-methyl-3-oxo-2,3-dihydro-1H-pyrazol-4-yl]-4-(difluoromethoxy)benzamide] | 2 | > 10000 |
| COc1cc(F)c(-c2c(NC(=O)c3ccc(OC(F)F)cc3)c(=O)n(-c3nc(NCC(C)(C)C(N)=O)ccc3C(F)(F)F)n2C)c(F)c1 [Example 279, N-(2-{6-[(2-carbamoyl-2,2-dimethylethyl)amino]-3-(trifluoromethyl)pyridin-2-yl}-5-(2,6-difluoro-4-methoxyphenyl)-1-methyl-3-oxo-2,3-dihydro-1H-pyrazol-4-yl)-4-(difluoromethoxy)benzamide] | 2 | > 10000 |
| COc1cc(F)c(-c2c(NC(=O)c3ccc(OC(F)F)cc3)c(=O)n(-c3nc(N4CC[C@H](O)C4)ccc3C(F)(F)F)n2C)c(F)c1 [Example 280, N-[5-(2,6-difluoro-4-methoxyphenyl)-2-{6-[(3S)-3-hydroxypyrrolidin-1-yl]-3-(trifluoromethyl)pyridin-2-yl}-1-methyl-3-oxo-2,3-dihydro-1H-pyrazol-4-yl]-4-(difluoromethoxy)benzamide] | 2 | 2700 |
| Cn1c(-c2ccc(OC(F)F)cc2)c(NC(=O)c2ccc(OC(F)F)cc2)c(=O)n1-c1ncccc1C(F)(F)F [Example 281, 4-(difluoromethoxy)-N-{5-[4-(difluoromethoxy)phenyl]-1-methyl-3-oxo-2-[3-(trifluoromethyl)pyridin-2-yl]-2,3-dihydro-1H-pyrazol-4-yl}benzamide] | 18 | 500 |
